Source: ChEMBL document CHEMBL1156829 (Proc Natl Acad Sci U S A, 2008)
pEC50: −log10 of the molar value.

Experiments:
Plasmodium falciparum [1] = assay: NOVARTIS: Inhibition of Plasmodium falciparum W2 (drug-resistant) proliferation in erythrocyte-based infection assay; assay type: functional, organism-based; settings: Plasmodium falciparum, W2; read-out: EC50
Plasmodium falciparum [2] = assay: NOVARTIS: Inhibition of Plasmodium falciparum 3D7 (drug-susceptible) proliferation in erythrocyte-based infection assay; assay type: functional, organism-based
[3] = NOVARTIS: Cytotoxicity against human hepatocellular carcinoma cell line (Huh7); assay type: toxicity, cell-based, Huh-7; settings: Huh7 cells (hepatocellular carcinoma cell line)

Structure (SMILES) | pEC50 (Plasmodium falciparum [1]) | pEC50 (Plasmodium falciparum [2]; Plasmodium falciparum, 3D7) | CC50 [3] | pEC50 (Plasmodium falciparum [2])
CCCC(C)C(C(=O)NCc1ccccc1)N1C(=O)c2cc(NC(C)=O)ccc2NC(=O)[C@@H]1c1ccccc1 (stereo partly specified) | > 8.15 | < 5.90 | 9210 nM | 
CC(C)c1cccc(C(C)C)c1NC(=O)N(Cc1ccccc1)C(C)c1nc2ccccc2c(=O)n1-c1ccccc1 (stereo unspecified) | 6.13 | 5.88 | > 10000 nM | 
CCCCCCN(C(=O)c1ccc(C(C)(C)C)cc1)C(CC)c1nc2ccccc2c(=O)n1-c1ccccc1OC (stereo unspecified) | 6.46 | 6.45 | > 10000 nM | 
O=C(NNC(=O)c1cccc(F)c1)C(=O)N1CCOCC1 | < 5.95 | < 5.90 | > 10000 nM | 
CCCCN(C(=O)Nc1ccc(OCC)cc1)C(C)c1nc2ccccc2c(=O)n1-c1ccc(F)c(Cl)c1 (stereo unspecified) | 6.03 | 6.00 | > 10000 nM | 
COCC(=O)Oc1ccccc1-c1nc2cc(C)ccn2c1NC(C)(C)CC(C)(C)C | > 8.04 | 6.10 | > 6200 nM | 
CC[n+]1c(/C=C/C=C2\N(C)c3ccccc3C2(C)C)n(-c2ccccc2)c2ccc(C)cc21 | 5.85 | 5.81 | > 10000 nM | 
CCOC(=O)C1=C(C)NC(=Cc2cc(C)n(-c3ccc(C)cc3)c2C)C1=O | 6.77 | 6.92 | > 100000 nM | 
CC1(C)CC(=O)C(=CNc2nc3c(s2)CCc2c-3cnn2-c2ccccc2)C(=O)C1 | < 5.90 | < 6.03 | > 10000 nM | 
O=C(CN1C(=O)C2C3CCC(C3)C2C1=O)N1CCCC(c2ncncc2-c2ccncc2)C1 (stereo unspecified) | < 5.90 | 6.61 | > 10000 nM | 
COc1ccccc1NC(=O)N(CCC(C)C)C(C)c1nc2ccccc2c(=O)n1-c1ccccc1Cl (stereo unspecified) | > 7.59 | 6.09 | > 10000 nM | 
COc1ccc(C2CC(=O)C3=C(C2)NC(C)=C(C(=O)OC(C)C)C3c2cccc(Cl)c2)cc1OC (stereo unspecified) | 7.50 | 7.15 | 16000 nM | 
COc1cc(OC)cc(C(=O)Nc2cc(C(=O)N3CCC(Cc4ccccc4)CC3)ccc2N2CC3CC(C2)c2cccc(=O)n2C3)c1 (stereo unspecified) | 6.26 | 5.73 | 50300 nM | 
Nc1noc2cccc(OC3CCNCC3)c12 | > 7.61 | 5.99 | > 10000 nM | 
CC(=NOC(=O)c1ccco1)c1cnccn1 | < 5.90 | 5.90 | > 10000 nM | 
CC(NC(=O)Cc1ccc(F)cc1)C(c1cccs1)N1CCOCC1 (stereo unspecified) | < 5.90 | 5.70 | > 10000 nM | 
C[n+]1cccc(/C=C2/c3ccccc3-c3ncccc32)c1 | 6.26 | 6.09 | > 10000 nM | 
O=C(Nc1ccc([N+](=O)[O-])cc1Cl)c1cc(Br)ccc1O | 6.10 | < 4.90 | 55600 nM | 
COC(=O)c1sccc1S(=O)(=O)N1CCCC(c2[nH]ncc2-c2ccccc2)C1 (stereo unspecified) | 5.46 | 5.52 | > 100000 nM | 
C/C=C/c1n(C)c2ccccc2[n+]1C | 6.23 | 6.30 | > 10000 nM | 
CCCCCN(C(=O)c1ccc(Br)cc1)C(CC)c1nc2ccccc2c(=O)n1-c1ccccc1OC (stereo unspecified) | 6.20 | 5.99 | > 4400 nM | 
CCOc1ccc(C(=O)CN2C(=O)c3ccccc3OC(C(C)C)C2=O)cc1[N+](=O)[O-] (stereo unspecified) | 5.72 | < 4.90 | > 100000 nM | 
Cc1ccc(-c2c3c4n(c(-c5ccc(Cl)cc5)cn4c2C(=O)Nc2ccccc2Cl)CCCC3)cc1 | 5.94 | 6.57 | > 100000 nM | 

Structure (SMILES) | pEC50 (Plasmodium falciparum [1]) | pEC50 (Plasmodium falciparum [2]; Plasmodium falciparum, 3D7) | CC50 [3] | pEC50 (Plasmodium falciparum [2])
CCCOC(=O)C1=C(C)NC2=C(C(=O)CC(c3ccc(OC)cc3)C2)C1c1ccccc1Cl (stereo unspecified) | 7.66 | 7.57 | > 100000 nM | 
CN(CCCNc1ccnc2cc(Cl)ccc12)C(=O)COc1ccc(Cl)cc1 | 7.11 | 7.23 | 20300 nM | 
FC(F)(F)c1ccccc1CN1CCc2nc(N3CCCCC3)sc2C1 | 6.64 | 6.60 | > 10000 nM | 
CCCCCCCCCn1c2c(c(=N)c3c1CCC3)CCCC2 | 6.73 | 6.88 | 3740 nM | 
CC(=O)N(C1=C(N(C)C)C(=O)c2ccccc2C1=O)c1cccc(F)c1 | 7.97 | 7.87 | 1360 nM | 
O=C1c2cccc(N3CCCC(C(=O)N4CCCCC4c4cccnc4)C3)c2C(=O)N1Cc1ccc(C(F)(F)F)cc1 (stereo unspecified) | 5.82 | 5.47 | > 100000 nM | 
Cc1cc(Cl)ccc1OC(C)C(=O)N1CCc2ccccc21 (stereo unspecified) | 6.09 | 6.20 | > 100000 nM | 
CCN1CCC(N2CCC(n3c(Cc4ccccc4OC)nc4cc(F)ccc43)CC2)CC1 | 6.46 | 6.38 | 37700 nM | 
CSc1nc2sc3c(c2c(=O)n1-c1ccccc1)CCN(CCc1ccccc1)C3 | 5.94 | 6.07 | > 69300 nM | 
COC(=O)c1ccc(C2C3=C(O)CC(c4ccc(F)cc4)CC3=Nc3ccccc3N2C(=O)c2ccccc2)cc1 (stereo unspecified) | 6.54 | 6.48 | > 100000 nM | 
Clc1ccc(Nc2nc3nonc3nc2Nc2ccc(Cl)c(Cl)c2)cc1Cl | 5.03 | < 4.90 | 48700 nM | 
COc1ccc(N2CCN(C(CNC(=O)CC(C)C)c3ccco3)CC2)cc1 (stereo unspecified) | 6.12 | 5.17 | > 100000 nM | 
CCOC(=O)c1cnc2c(C)c3[nH]c(C)c(C)c3cc2c1O | 5.97 | < 5.88 | > 10000 nM | 
O=C1Nc2ccccc2Sc2ccccc21 | < 4.90 | < 5.52 | > 100000 nM | 
COc1ccc(C2CC(=O)C3=C(C2)NC(C)=C(C(=O)OC2CCCC2)C3c2ccc(F)cc2)cc1 (stereo unspecified) | 7.38 | 7.01 | > 100000 nM | 
Cc1ccccc1NC(c1cccc(Cl)c1)c1nnnn1C1CCCCC1 (stereo unspecified) | < 5.97 | < 5.76 | > 10000 nM | 
COC(=O)C1=C(O)/C(=C\c2cc(C)n(-c3ccccc3F)c2C)N=C1C | < 5.90 | < 6.01 | > 10000 nM | 
CCC(C)C(=O)N1CCC(C(=O)Nc2ccc(-c3nc4ccccc4o3)cc2)CC1 (stereo unspecified) | 5.80 | 5.73 | > 100000 nM | 
CCCCC(=O)Oc1ccccc1-c1nc2cc(C)ccn2c1NC(C)(C)CC(C)(C)C | 7.24 | 6.07 | > 10000 nM | 
CCOC(=O)c1c(C)n(-c2ccccc2)c2ccc(O)cc12 | 5.58 | 5.77 | > 100000 nM | 
COc1ccc2c(c1)c(C)cc[n+]2Cc1ccccc1 | 6.93 | 7.06 | 20700 nM | 
CC(C)CN(CC(O)CN(CCN1CCOCC1)S(=O)(=O)Cc1ccccc1)C(=O)C1CCCN1C(=O)OC(C)(C)C (stereo unspecified) | < 5.90 | < 5.95 | > 10000 nM | 
O=C1c2ccccc2-[n+]2ccc3c([nH]c4ccccc43)c21 [FASCAPLYSIN CHLORIDE] | 7.33 | 7.13 | 589 nM | 

Structure (SMILES) | pEC50 (Plasmodium falciparum [1]) | pEC50 (Plasmodium falciparum [2]; Plasmodium falciparum, 3D7) | CC50 [3] | pEC50 (Plasmodium falciparum [2])
COc1cc(NC(=O)/C=C/c2ccccc2Cl)cc(OC)c1OC | 5.98 | 6.06 | > 10000 nM | 
Cc1nc2ccccc2c(O)c1CC=C(Cl)Cl | 6.29 | 6.30 | > 100000 nM | 
Cc1cccc(CC(=O)N2CCC[C@@H]3CN(C(=O)CCc4cccnc4)CC[C@@H]32)c1 | 6.50 | < 5.90 | > 10000 nM | 
CCc1ccc(C(=O)N(CC(=O)Nc2cc(C(C)(C)C)nn2-c2ccc(Cl)c(Cl)c2)C(C)C)cc1 | 5.41 | 5.76 | 87800 nM | 
CCN1C(C(=O)c2ccccc2)=C(Nc2c(C)n(C)n(-c3ccccc3)c2=O)c2ccccc2S1(=O)=O | 5.48 | < 4.90 | > 100000 nM | 
C=CCN1C=CC(=Cc2sc3ccccc3[n+]2C)c2ccccc21 | 6.90 |  | > 9370 nM | 6.36
COc1ccc2cc(CNCCc3cccc(Cl)c3)c(N3CCC(=O)N(CCN(C)C)CC3)nc2c1 | 7.11 | < 5.90 | > 10000 nM | 
O=C(NCCCCNc1ccnc2cc(Cl)ccc12)c1ccccc1Cl | > 7.86 | 6.12 | > 12000 nM | 
CCOC(=O)c1cccc(NC(=O)CC2C(=O)N(c3ccc(F)cc3)C(=O)N2CCC(C)C)c1 (stereo unspecified) | 7.00 | 6.70 | > 100000 nM | 
c1cncc(-c2cc(NCCCn3ccnc3)nc(-c3ccncc3)n2)c1 | 6.02 | 5.96 | > 10000 nM | 
COc1cc(CNc2cc(OCCOc3ccc(Cl)cc3)cc(C(=O)NC3CCN(Cc4ccccc4)CC3)c2)ccc1OCc1ccccc1 | < 5.90 | 6.04 | > 12100 nM | 
CCOC(=O)c1cnn(-c2ccnc3cc(Cl)ccc23)c1CNC(C)c1cccs1 (stereo unspecified) | < 6.03 | < 5.81 | > 10000 nM | 
O=C(Nc1ccc(F)cc1)N1CCN(c2ccc3nnc(-c4ccccc4)n3n2)CC1 | 5.48 | < 4.90 | > 100000 nM | 
CCCCCCCC(=O)N1CCN(C(=O)C(NC(=O)Nc2ccc(Cl)cc2Cl)C(C)CC)CC1 (stereo unspecified) | 6.15 | < 7.39 | > 10000 nM | 
N#C/C(=C\c1cn(Cc2ccccc2Cl)c2ccccc12)c1nn(CCO)c(N)c1C#N | 6.35 | 6.30 | > 10000 nM | 
CN(C)c1cc[n+](OC(=O)N2CCCCC2)cc1 | < 6.34 | 6.88 | > 10000 nM | 
CCOC(=O)CSC1=Nc2ccccc2C2=NC(Cc3ccccc3)C(=O)N12 (stereo unspecified) | 6.39 | < 5.90 | > 10000 nM | 
Cn1ncnc2c(=O)n(C)c(=O)nc1-2 | 6.32 | < 4.90 | 199 nM | 
O=S(=O)(Oc1ccc2ccccc2c1Cc1c(OS(=O)(=O)c2ccccc2)ccc2ccccc12)c1ccccc1 | 5.73 | < 4.90 | > 100000 nM | 
CC1Cc2ccccc2N1C(=O)Cn1c(=O)oc2ccccc21 (stereo unspecified) | < 5.90 | < 6.04 | > 10000 nM | 
c1ccc(CCNc2ncnc3c2[nH]c2ccccc23)cc1 | 6.86 | 6.78 | 15600 nM | 
